Target: T1, Ret proto-oncogene (Homo sapiens, UniProt Q9UE13)
T1 sequence (Q9UE13 whole entry): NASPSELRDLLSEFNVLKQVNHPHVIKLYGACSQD

| Ki [µM] | SMILES |
| --- | --- |
| > 10 | Cc1ccc(NC(=O)c2ccc(CN3CCN(C)CC3)cc2)cc1Nc1nccc(-c2cccnc2)n1 |
| 8.68 | Cc1cn(-c2cc(NC(=O)c3ccc(C)c(Nc4nccc(-c5cccnc5)n4)c3)cc(C(F)(F)F)c2)cn1 [AMN 107] |

Reference: BindingDB's records for doi:10.1073/pnas.0511292103 (Genomics Institute of The Novartis Research Foundation, 2006)
